Experimental findings from paper PMC11251990 (Frontiers in Pharmacology, 2024) are described below.

Holding throughout (format): biochemical
Assay [1] deals with T1, dipeptidyl peptidase 1 (DPP1, cathepsin C) (Canis lupus, UniProt O97578).
T1 construct: gene CTSC; native DPP1 in dog white blood cell lysate
In words: fluorogenic H-Gly-Arg-AMC cleavage assay in crude white blood cell lysate. The note with it: read-out: DPP1 / Dog.

Assay [2] concerns the target T2, dipeptidyl peptidase 1 (DPP1, cathepsin C) (Mus musculus, UniProt P97821).
T2 construct: gene Ctsc; recombinant mouse DPP1
The assay can be described thus: fluorogenic H-Gly-Arg-AMC cleavage assay with recombinant enzyme.

The target of assay [3] is T3, dipeptidyl peptidase 1 (DPP1, cathepsin C) (Rattus norvegicus, UniProt P80067).
T3 construct: gene Ctsc; recombinant rat DPP1, proteolytically processed into mature form with cathepsin L
T3 sequence (P80067 25-134): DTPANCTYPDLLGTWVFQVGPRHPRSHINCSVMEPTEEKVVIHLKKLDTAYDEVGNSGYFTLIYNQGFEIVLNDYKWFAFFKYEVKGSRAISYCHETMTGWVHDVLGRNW
T3 sequence (P80067 230-393): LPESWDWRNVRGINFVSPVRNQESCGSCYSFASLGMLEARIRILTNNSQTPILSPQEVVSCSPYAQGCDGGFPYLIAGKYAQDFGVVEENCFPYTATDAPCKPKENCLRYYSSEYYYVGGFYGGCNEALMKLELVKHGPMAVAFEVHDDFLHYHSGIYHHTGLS
T3 sequence (P80067 394-462): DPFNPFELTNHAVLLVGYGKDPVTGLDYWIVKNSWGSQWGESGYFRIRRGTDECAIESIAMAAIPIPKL
The description is as above.

Each structure is given as a SMILES string.

T1 sequence (O97578 1-109): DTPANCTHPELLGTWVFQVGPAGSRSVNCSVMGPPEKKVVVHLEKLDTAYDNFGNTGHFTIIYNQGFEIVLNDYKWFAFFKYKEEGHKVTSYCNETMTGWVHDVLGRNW
T1 sequence (O97578 200-435): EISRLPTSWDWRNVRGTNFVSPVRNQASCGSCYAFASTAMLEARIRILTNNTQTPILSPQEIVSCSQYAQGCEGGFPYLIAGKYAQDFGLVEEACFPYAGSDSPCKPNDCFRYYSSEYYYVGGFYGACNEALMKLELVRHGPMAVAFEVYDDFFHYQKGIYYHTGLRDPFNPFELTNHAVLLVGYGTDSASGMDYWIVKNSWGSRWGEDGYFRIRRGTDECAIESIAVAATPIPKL
T2 sequence (P97821 25-134): as the sequence (P80067 25-134) above, with H23S, P24S, H27D, P35A, I42V, V54L, Y59H, K86R, S88H, R89T counted along it
T2 sequence (P97821 231-462): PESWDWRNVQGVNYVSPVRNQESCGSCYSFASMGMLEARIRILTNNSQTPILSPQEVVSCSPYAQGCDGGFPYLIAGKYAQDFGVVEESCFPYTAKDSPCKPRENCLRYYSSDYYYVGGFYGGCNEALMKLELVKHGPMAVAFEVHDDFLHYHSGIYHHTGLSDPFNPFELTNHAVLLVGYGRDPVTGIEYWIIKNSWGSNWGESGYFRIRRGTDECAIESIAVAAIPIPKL

In the case of `Cn1c(=O)oc2ccc(-c3ccc(C[C@@H](C#N)NC(=O)[C@@H]4CNCCCO4)cc3)cc21` [brensocatib], the values for the IC50 in assay [1], in assay [2] and in assay [3] were 38.1 nM, 24.1 nM and 51.1 nM, respectively.
